ChEMBL document CHEMBL1201862, “PubChem BioAssay data set” (2004)
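Dose response: 5 concentrations. Exposure: 48 h. Format: 96-well plates. Endpoint: linear interpolation; highest concentration if not reached. Here, GI50 denotes the concentration required for 50% inhibition of growth.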 The source made the active and inactive calls. No stated cut-off is given here; in the data, active = GI50 up to about 1.1 µM and inactive = higher.

How the values were obtained:
Assay in all cases: growth of human tumour cells (NCI), 48 h
MDA-MB-231 = tested on: MDA-MB-231
M14 = tested on: M14
EKVX = tested on: EKVX
SNB-19 = tested on: SNB-19
LOX IMVI = tested on: LOX IMVI
HOP-92 = tested on: HOP-92
SW-620 = tested on: SW-620
UACC-62 = tested on: UACC-62
NCI-H460 = tested on: NCI-H460
SF-268 = tested on: SF-268
HCT-15 = tested on: HCT-15
XF498 = tested on: XF498
CCRF-CEM = tested on: CCRF-CEM
OVCAR-5 = tested on: OVCAR-5
DMS-273 = tested on: DMS-273
SK-MEL-5 = tested on: SK-MEL-5
KM12 = tested on: KM12
IGROV-1 = tested on: IGROV-1
NCI/ADR-RES = tested on: NCI/ADR-RES
LXFL 529 = tested on: LXFL 529
DU-145 = tested on: DU-145
Hs-578T = tested on: Hs-578T
SK-MEL-28 = tested on: SK-MEL-28
SK-MEL-2 = tested on: SK-MEL-2
KM-20L2 = tested on: KM-20L2
SR = tested on: SR
NCI-H23 = tested on: NCI-H23
MDA-N = tested on: MDA-N
MCF7 = tested on: MCF7
RPMI-8226 = tested on: RPMI-8226
U-251 = tested on: U-251
PC-3 = tested on: PC-3
SK-OV-3 = tested on: SK-OV-3
HCC 2998 = tested on: HCC 2998
NCI-H522 = tested on: NCI-H522
ACHN = tested on: ACHN
DMS-114 = tested on: DMS-114
OVCAR-4 = tested on: OVCAR-4
RXF 393 = tested on: RXF 393
SNB-75 = tested on: SNB-75
SF-295 = tested on: SF-295
OVCAR-8 = tested on: OVCAR-8
MOLT-4 = tested on: MOLT-4
BT-549 = tested on: BT-549
K562 = tested on: K562
DLD-1 = tested on: DLD-1
MDA-MB-435 = tested on: MDA-MB-435
OVCAR-3 = tested on: OVCAR-3
HL-60 = tested on: HL-60
T47D = tested on: T47D
TK-10 = tested on: TK-10
Malme-3M = tested on: Malme-3M
A549 = tested on: A549
CAKI-1 = tested on: CAKI-1
A498 = tested on: A498
RXF 631 = tested on: RXF 631
HCT-116 = tested on: HCT-116
NCI-H226 = tested on: NCI-H226
HOP-18 = tested on: HOP-18
UACC-257 = tested on: UACC-257
786-0 = tested on: 786-0
COLO 205 = tested on: COLO 205
UO-31 = tested on: UO-31
HT-29 = tested on: HT-29
HOP-62 = tested on: HOP-62
M19-MEL = tested on: M19-MEL
SF-539 = tested on: SF-539
SN12C = tested on: SN12C
SNB-78 = tested on: SNB-78

For `COC(=O)C1=C(C=O)C2C=CC1C2` (configuration not stated), the GI50 (MDA-MB-231) was > 100 µM (inactive), the GI50 (M14) was 45.1 µM (inactive) and the GI50 (EKVX) was 98.4 µM (inactive). For the same compound, the GI50 (SNB-19) was > 100 µM (inactive), the GI50 (LOX IMVI) was > 60.5 µM (inactive) and the GI50 (HOP-92) was > 100 µM (inactive). The GI50 (SW-620) was 43.6 µM (inactive), the GI50 (UACC-62) was > 93.1 µM (inactive) and the GI50 (NCI-H460) was > 100 µM (inactive). The GI50 (SF-268) was > 83.4 µM (inactive), the GI50 (HCT-15) was 42.1 µM and the GI50 (XF498) was 27.2 µM (inactive). The GI50 (CCRF-CEM) was 25.1 µM (inactive), the GI50 (OVCAR-5) was > 100 µM (inactive) and the GI50 (DMS-273) was > 44.2 µM (inactive). For the same compound, the GI50 (SK-MEL-5) was > 100 µM (inactive), the GI50 (KM12) was > 100 µM (inactive) and the GI50 (IGROV-1) was > 100 µM (inactive). For the same compound, the GI50 (NCI/ADR-RES) was > 100 µM (inactive), the GI50 (LXFL 529) was 21.1 µM (inactive) and the GI50 (DU-145) was > 100 µM (inactive). The GI50 (Hs-578T) was > 100 µM (inactive), the GI50 (SK-MEL-28) was > 64.3 µM (inactive) and the GI50 (SK-MEL-2) was > 100 µM (inactive). The GI50 (KM-20L2) was > 63 µM (inactive), the GI50 (SR) was > 56.6 µM (inactive) and the GI50 (NCI-H23) was > 97.5 µM (inactive). The GI50 (MDA-N) was > 100 µM (inactive), the GI50 (MCF7) was > 100 µM (inactive) and the GI50 (RPMI-8226) was 51.1 µM (inactive). The GI50 (U-251) was > 88.5 µM (inactive), the GI50 (PC-3) was > 100 µM (inactive) and the GI50 (SK-OV-3) was > 68.7 µM (inactive). The GI50 (HCC 2998) was > 89.1 µM (inactive), the GI50 (NCI-H522) was 44.5 µM (inactive) and the GI50 (ACHN) was > 67.9 µM (inactive). For the same compound, the GI50 (DMS-114) was > 57.7 µM (inactive), the GI50 (OVCAR-4) was > 82.8 µM (inactive) and the GI50 (RXF 393) was 81.5 µM (inactive). The GI50 (SNB-75) was 28.6 µM (inactive), the GI50 (SF-295) was > 100 µM (inactive) and the GI50 (OVCAR-8) was 55 µM (inactive). For the same compound, the GI50 (MOLT-4) was 35.6 µM (inactive), the GI50 (BT-549) was > 100 µM (inactive) and the GI50 (K562) was 34.2 µM (inactive). For the same compound, the GI50 (DLD-1) was 27.9 µM (inactive), the GI50 (MDA-MB-435) was > 100 µM (inactive) and the GI50 (OVCAR-3) was 55.8 µM (inactive). The GI50 (HL-60) was 21.3 µM (inactive), the GI50 (T47D) was > 100 µM (inactive) and the GI50 (TK-10) was 53.8 µM (inactive). The GI50 (Malme-3M) was 56.9 µM (inactive), the GI50 (A549) was > 100 µM (inactive) and the GI50 (CAKI-1) was 44.2 µM (inactive). For the same compound, the GI50 (A498) was > 100 µM (inactive), the GI50 (RXF 631) was > 100 µM (inactive) and the GI50 (HCT-116) was 58.9 µM (inactive). The GI50 (NCI-H226) was > 100 µM (inactive), the GI50 (HOP-18) was 30.5 µM (inactive) and the GI50 (UACC-257) was 47.9 µM (inactive). The GI50 (786-0) was > 92.3 µM (inactive), the GI50 (COLO 205) was 46.3 µM (inactive) and the GI50 (UO-31) was > 100 µM (inactive). For the same compound, the GI50 (HT-29) was > 66.2 µM (inactive), the GI50 (HOP-62) was > 100 µM (inactive) and the GI50 (M19-MEL) was > 45 µM (inactive). The GI50 (SF-539) was > 100 µM (inactive), the GI50 (SN12C) was > 71.8 µM (inactive) and the GI50 (SNB-78) was 74.1 µM (inactive).
For `COc1ccc(Cc2nc3ccccc3s2)cc1OC`, the GI50 (M14) was 17.5 µM (inactive), the GI50 (EKVX) was 20.8 µM (inactive) and the GI50 (SNB-19) was 32.5 µM (inactive). For the same compound, the GI50 (HOP-92) was 17.7 µM (inactive), the GI50 (SW-620) was 18.5 µM (inactive) and the GI50 (UACC-62) was 17.3 µM (inactive). For the same compound, the GI50 (NCI-H460) was 19.7 µM (inactive), the GI50 (SF-268) was 15.8 µM (inactive) and the GI50 (HCT-15) was 24.2 µM. The GI50 (XF498) was 15.3 µM (inactive), the GI50 (CCRF-CEM) was 14.8 µM (inactive) and the GI50 (OVCAR-5) was 22.3 µM (inactive). For the same compound, the GI50 (DMS-273) was 15.6 µM (inactive), the GI50 (SK-MEL-5) was 16.1 µM (inactive) and the GI50 (KM12) was 17.4 µM (inactive). The GI50 (IGROV-1) was 18.9 µM (inactive), the GI50 (LXFL 529) was 17.5 µM (inactive) and the GI50 (SK-MEL-28) was 18 µM (inactive). The GI50 (SK-MEL-2) was 20.3 µM (inactive), the GI50 (KM-20L2) was 19.3 µM (inactive) and the GI50 (SR) was 18.9 µM (inactive). For the same compound, the GI50 (NCI-H23) was 18.1 µM (inactive), the GI50 (RPMI-8226) was 23.7 µM (inactive) and the GI50 (U-251) was 14.6 µM (inactive). For the same compound, the GI50 (SK-OV-3) was 28.2 µM (inactive), the GI50 (HCC 2998) was 21.1 µM (inactive) and the GI50 (NCI-H522) was 17.8 µM (inactive). For the same compound, the GI50 (ACHN) was 16.8 µM (inactive), the GI50 (DMS-114) was 15.7 µM (inactive) and the GI50 (OVCAR-4) was 16.4 µM (inactive). The GI50 (RXF 393) was 19.6 µM (inactive), the GI50 (SNB-75) was 18.8 µM (inactive) and the GI50 (SF-295) was 15.1 µM (inactive). For the same compound, the GI50 (OVCAR-8) was 16.9 µM (inactive), the GI50 (MOLT-4) was 20.2 µM (inactive) and the GI50 (K562) was 20.3 µM (inactive). The GI50 (DLD-1) was 16.6 µM (inactive), the GI50 (OVCAR-3) was 17.3 µM (inactive) and the GI50 (HL-60) was 18.4 µM (inactive). For the same compound, the GI50 (TK-10) was 36.2 µM (inactive), the GI50 (Malme-3M) was 17.1 µM (inactive) and the GI50 (A549) was 23.5 µM (inactive). The GI50 (CAKI-1) was 15.5 µM (inactive), the GI50 (A498) was 23.7 µM (inactive) and the GI50 (RXF 631) was 17.7 µM (inactive). For the same compound, the GI50 (HCT-116) was 15.8 µM (inactive), the GI50 (NCI-H226) was 21 µM (inactive) and the GI50 (HOP-18) was 23.9 µM (inactive). For the same compound, the GI50 (UACC-257) was 18.1 µM (inactive), the GI50 (786-0) was 17.9 µM (inactive) and the GI50 (COLO 205) was 14.6 µM (inactive). For the same compound, the GI50 (UO-31) was 16.4 µM (inactive), the GI50 (HT-29) was 18.7 µM (inactive) and the GI50 (HOP-62) was 29.6 µM (inactive). For the same compound, the GI50 (M19-MEL) was 15.6 µM (inactive), the GI50 (SF-539) was 17.3 µM (inactive) and the GI50 (SN12C) was 17.1 µM (inactive). The GI50 (SNB-78) was 19.8 µM (inactive).
